Results on six compounds are retold here after the supplement of paper PMC7661543.

± gives the standard deviation of the averaged measurements.

Holding throughout (assay): relative cell number vs DMSO control (72 h) (% of DMSO); higher = less growth inhibition (more cells)
Conditions in all cases: sgRNA knockout: sgNT

One test deals with SKBR3. The procedure, abridged:
(§1)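 Doxycycline at 100 ng/mL was applied for 6 days to pooled Cas9-engineered breast cancer lines, each holding 12 sgRNA perturbations. The cells were then seeded at 5000 per 96-well and exposed in duplicate for 72 h to four 10-fold doses (10 nM–10 μM or 1 nM–1 μM). Cell numbers were read from sequenced sgRNA and cell-line barcodes using per-sample 293T spike-in standard curves. The reported relative cell number is the percent of the median of DMSO-treated samples.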

For the next test, the system named is BT-20. The gist of the method: as §1
The next test deals with HCC-38. The procedure, abridged:
as §1

A further test deals with MDA-MB-231. The procedure, abridged: as §1
The subject of another test is ZR-75-1. The gist of the method: as §1

Consider `N[C@@H](CC(=O)N1CCn2c(nnc2C(F)(F)F)C1)Cc1cc(F)c(F)cc1F` [Sitagliptin], for which the relative cell number was determined as 87.3 ± 2.4 in the test with SKBR3 (10 nM); 89.5 ± 3.5 in the test with SKBR3 (100 nM); 82.6 ± 2.9 with SKBR3 (1000 nM); 89.8 ± 3.9 in the test on SKBR3 (10000 nM); 107 ± 24 in the test on BT-20 (10 nM); 90.6 ± 5.2 in the test with BT-20 (100 nM). Further, the relative cell number with BT-20 (1000 nM) came out at 74.2 ± 14; in the test with BT-20 (10000 nM) it was 123 ± 24; in the test with HCC-38 (10 nM) it was 106 ± 10; in the test on HCC-38 (100 nM), 99.2 ± 12; in the test with HCC-38 (1000 nM), 106 ± 5; in the test on HCC-38 (10000 nM), 92.2 ± 1.9. Besides, the relative cell number in the test with MDA-MB-231 (10 nM) is 114 ± 63; with MDA-MB-231 (100 nM), 86.6 ± 14; with MDA-MB-231 (1000 nM), 113 ± 32; in the test with MDA-MB-231 (10000 nM), 120 ± 77; in the test on ZR-75-1 (10 nM), 118 ± 6.4; with ZR-75-1 (100 nM) it was 84.6 ± 64. Also, the relative cell number was 124 ± 34 in the test on ZR-75-1 (1000 nM) and 96.5 ± 5.2 in the test with ZR-75-1 (10000 nM).

Consider `Cn1nnc2c(C(N)=O)ncn2c1=O` [Temozolomide], for which the relative cell number turned out to be 111 ± 8.3 in the test on SKBR3 (10 nM); 84.7 ± 20 in the test on SKBR3 (100 nM); 104 ± 27 in the test on SKBR3 (1000 nM); 96.1 ± 40 with SKBR3 (10000 nM); 106 ± 24 in the test on BT-20 (10 nM); 111 ± 30 in the test with BT-20 (100 nM). For the same compound, the relative cell number is 111 ± 14 in the test on BT-20 (1000 nM); 132 ± 37 in the test with BT-20 (10000 nM); 115 ± 2.3 in the test on HCC-38 (10 nM); 89.6 ± 1.4 with HCC-38 (100 nM); 113 ± 6.5 in the test on HCC-38 (1000 nM); 137 ± 26 with HCC-38 (10000 nM). Moreover, the relative cell number was 125 ± 13 in the test on MDA-MB-231 (10 nM); 108 ± 27 with MDA-MB-231 (100 nM); 89 ± 25 with MDA-MB-231 (1000 nM); 101.6 ± 0.8 in the test with MDA-MB-231 (10000 nM); 89.66 ± 0.62 in the test on ZR-75-1 (10 nM); 103 ± 16 in the test with ZR-75-1 (100 nM). For the same compound, the figures for the relative cell number with ZR-75-1 (1000 nM) and with ZR-75-1 (10000 nM) were 81.7 ± 5.9 and 86.6 ± 3.4, respectively.

On to `CN1CCN(c2ccc(C(=O)Nc3n[nH]c4ccc(Cc5cc(F)cc(F)c5)cc34)c(NC3CCOCC3)c2)CC1` [Entrectinib], for which the relative cell number in the test with SKBR3 (1 nM) stood at 113 ± 7.7; in the test with SKBR3 (10 nM), 113 ± 3.7; in the test on SKBR3 (100 nM), 82.9 ± 36; in the test on SKBR3 (1000 nM), 95 ± 19; in the test with BT-20 (1 nM) it was 102 ± 28; in the test on BT-20 (10 nM), 97.9 ± 13. The relative cell number in the test on BT-20 (100 nM) was 91.6 ± 1.3; with BT-20 (1000 nM) it was 92.9 ± 5.6; in the test on HCC-38 (1 nM), 90.4 ± 11; in the test on HCC-38 (10 nM) it was 96.6 ± 2.2; in the test on HCC-38 (100 nM) it was 89.3 ± 23; in the test on HCC-38 (1000 nM), 79.1 ± 6.5. The relative cell number with MDA-MB-231 (1 nM) amounted to 86.7 ± 26; in the test with MDA-MB-231 (10 nM) it was 101 ± 9.8; in the test on MDA-MB-231 (100 nM), 93.3 ± 6.3; with MDA-MB-231 (1000 nM), 105 ± 6.8; in the test with ZR-75-1 (1 nM), 73.5 ± 22; in the test on ZR-75-1 (10 nM) it was 105 ± 44. The relative cell number in the test on ZR-75-1 (100 nM) was 73 ± 13; with ZR-75-1 (1000 nM), 85.7 ± 8.3.

Consider `CNC(=O)c1cc(Oc2ccc(NC(=O)Nc3ccc(Cl)c(C(F)(F)F)c3)c(F)c2)ccn1` [Regorafenib], for which the relative cell number in the test on SKBR3 (10 nM) turned out to be 84.4 ± 8.2; in the test on SKBR3 (100 nM) it was 98.8 ± 11; in the test with SKBR3 (1000 nM), 101 ± 16; in the test with SKBR3 (10000 nM), 38.2 ± 5; with BT-20 (10 nM) it was 94.2 ± 7.3; with BT-20 (100 nM), 94.9 ± 19. Also, the relative cell number came to 116 ± 46 in the test on BT-20 (1000 nM); 42.7 ± 9.8 in the test on BT-20 (10000 nM); 105.7 ± 0.71 in the test with HCC-38 (10 nM); 113 ± 7.7 in the test on HCC-38 (100 nM); 110 ± 2.3 in the test with HCC-38 (1000 nM); 61.9 ± 11 in the test on HCC-38 (10000 nM). The relative cell number with MDA-MB-231 (10 nM) is 102 ± 13; in the test with MDA-MB-231 (100 nM), 114.3 ± 0.95; with MDA-MB-231 (1000 nM), 94.3 ± 26; in the test with MDA-MB-231 (10000 nM), 32.7 ± 7.6; in the test with ZR-75-1 (10 nM), 81.3 ± 52; with ZR-75-1 (100 nM), 68.8 ± 21. Moreover, the relative cell number in the test on ZR-75-1 (1000 nM) was 98.2 ± 40; with ZR-75-1 (10000 nM) it was 22.1 ± 1.5.

Regarding `CC(=O)Nc1nc(C)c(-c2ccc(Cl)c(S(=O)(=O)NCCO)c2)s1` [PIK93], the relative cell number with SKBR3 (10 nM) was 112 ± 59; with SKBR3 (100 nM), 66.5 ± 30; with SKBR3 (1000 nM) it was 94.4 ± 41; with SKBR3 (10000 nM) it was 51.9 ± 25; in the test with BT-20 (10 nM), 106 ± 8.5; in the test on BT-20 (100 nM), 104 ± 2.3. Besides, the relative cell number was 98.71 ± 0.17 in the test with BT-20 (1000 nM); 74 ± 3.9 in the test with BT-20 (10000 nM); 115 ± 21 in the test with HCC-38 (10 nM); 118 ± 22 in the test with HCC-38 (100 nM); 80.4 ± 7.5 in the test with HCC-38 (1000 nM); 62.7 ± 7.3 with HCC-38 (10000 nM). The relative cell number in the test with MDA-MB-231 (10 nM) is 84.5 ± 40; with MDA-MB-231 (100 nM), 98.2 ± 31; with MDA-MB-231 (1000 nM) it was 88.6 ± 11; in the test on MDA-MB-231 (10000 nM), 37.5 ± 1.5; in the test on ZR-75-1 (10 nM), 128 ± 19; in the test on ZR-75-1 (100 nM), 99.2 ± 33. For the same compound, the relative cell number in the test with ZR-75-1 (1000 nM) amounted to 61.1 ± 14; with ZR-75-1 (10000 nM) it was 63.8 ± 24.

With `CC(=O)Nc1cccc(-n2c(=O)n(C3CC3)c(=O)c3c(Nc4ccc(I)cc4F)n(C)c(=O)c(C)c32)c1` [Trametinib], the relative cell number in the test on SKBR3 (10 nM) was 116 ± 3.5; in the test with SKBR3 (100 nM) it was 72.4 ± 22; with SKBR3 (1000 nM), 87 ± 36; with SKBR3 (10000 nM) it was 58.7 ± 19; with BT-20 (10 nM), 97.3 ± 1.3; in the test on BT-20 (100 nM), 65.2 ± 12. Further, the relative cell number in the test on BT-20 (1000 nM) stood at 70.5 ± 16; with BT-20 (10000 nM), 82.8 ± 37; in the test on HCC-38 (10 nM), 100 ± 5.3; in the test on HCC-38 (100 nM) it was 78 ± 5.7; in the test on HCC-38 (1000 nM), 79.2 ± 5.8; with HCC-38 (10000 nM), 71.3 ± 2.2. Further, the relative cell number in the test on MDA-MB-231 (10 nM) was 102 ± 27; with MDA-MB-231 (100 nM), 66.9 ± 6; in the test on MDA-MB-231 (1000 nM) it was 39.9 ± 6; with MDA-MB-231 (10000 nM) it was 20.1 ± 2.6; in the test with ZR-75-1 (10 nM), 101 ± 9.6; in the test on ZR-75-1 (100 nM), 51.9 ± 2.8. Further, the relative cell number was found to be 43.3 ± 13 in the test with ZR-75-1 (1000 nM) and 40.3 ± 22 in the test with ZR-75-1 (10000 nM).
